Results published in patent publication US20240148821A1, “PHARMACEUTICAL USE OF CYCLIC PEPTIDE COMPOUND” (CHUGAI SEIYAKU KABUSHIKI KAISHA, priority 2021, published 2024).
Bridge positions count the residues as written; N and C are the ends. Square brackets hold non-standard residues; d marks the D form. Peptide text beside a SMILES is read from it. * marks the point of attachment. hPhe(3-Cl-4-CF3) = N[C@@H](CCc1ccc(C(F)(F)F)c(Cl)c1)C(=O)O; hPhe(3-F,4-CF3) = N[C@@H](CCc1ccc(C(F)(F)F)c(F)c1)C(=O)O; NMeAla(4-thiazolyl) = CN[C@@H](Cc1cscn1)C(=O)O; NMeAbu(4,4,4-F3) = CN[C@@H](CC(F)(F)F)C(=O)O; NMePhe(4-Cl) = CN[C@@H](Cc1ccc(Cl)cc1)C(=O)O; NMePhe(4-Me) = CN[C@@H](Cc1ccc(C)cc1)C(=O)O; NMePhe(4-F) = CN[C@@H](Cc1ccc(F)cc1)C(=O)O; NMePhe(2-Me) = CN[C@@H](Cc1ccccc1C)C(=O)O; NMeGly(cPent) = CN[C@H](C(=O)O)C1CCCC1; Phe(3-I) = N[C@@H](Cc1cccc(I)c1)C(=O)O; Pro(4,4-F2) = O=C(O)[C@@H]1CC(F)(F)CN1; NMeCha = CN[C@@H](CC1CCCCC1)C(=O)O; NMeChg = CN[C@H](C(=O)O)C1CCCCC1; NMeT = CN[C@H](C(=O)O)[C@@H](C)O; NMeD = CN[C@@H](CC(=O)O)C(=O)O; NMeL = CN[C@@H](CC(C)C)C(=O)O; NMeV = CN[C@H](C(=O)O)C(C)C; d(β3hA) = C[C@@H](N)CC(=O)O; NMeA = CN[C@@H](C)C(=O)O; NMeAib = CNC(C)(C)C(=O)O; Nle = CCCC[C@H](N)C(=O)O; Piperidide = C1CCN(*)CC1; Pra = C#CC[C@H](N)C(=O)O; Pyrrolidide = C1CCN(*)C1; Ac5c = NC1(C(=O)O)CCCC1; Aze = O=C(O)[C@@H]1CCN1; Nva = CCC[C@H](N)C(=O)O; NPrGly = CCCNCC(=O)O; Sar = CNCC(=O)O

System: Human pancreatic cancer cell line AsPC-1 (G12D mutation Kras)
Assay: AsPC-1 cell growth inhibition (AsPC-1 CGI)
Assay type: cell-based
Conditions: read-out: AsPC-1 cell growth inhibition, 50% growth inhibitory concentration (IC50 value); 96 hours, CellTiter-Glo, values classified in ranges
Experimental: Test compounds were serially dilated with dimethyl sulfoxide, and 200 nL was then dispensed to a U-bottom 96-well plate using Labcyte Echo. […] The cell suspension was dispensed to a. plate containing a test compound at 100 μL per well and incubated at 37° C. in a 5% carbon dioxide gas incubator. 96 hours later, 80 μL of CellTiter-Glo (Promega) was added to each well and fluorescence was measured.

SMILES | IC50
CCCC[C@@H]1NC(=O)[C@H](CC(C)C)N(C)C(=O)C[C@@H](C)NC(=O)[C@H](CC(C)C)N(C)C(=O)C2(CCCC2)NC(=O)[C@@H]2CCCN2C(=O)[C@H](CCc2ccc(C(F)(F)F)c(F)c2)NC(=O)CN(C)C(=O)[C@H](CC2CCCCC2)N(C)C(=O)CN(C)C(=O)CN(C)C1=O [Compound 1490] (cyclo([Ac5c][NMeL][d(β3hA)][NMeL][Nle][Sar][Sar][NMeCha][Sar][hPhe(3-F,4-CF3)]P)) | > 500 nM
CCCN1CC(=O)N(C)[C@@H](CC2CCCCC2)C(=O)N(C)CC(=O)N[C@@H](CCc2ccc(C(F)(F)F)c(Cl)c2)C(=O)N2CCC[C@H]2C(=O)NC2(CCCC2)C(=O)N(C)[C@@H](C(C)C)C(=O)N[C@H](C)CC(=O)N(C)[C@@H](CC(C)C)C(=O)N[C@@H]([C@@H](C)CC)C(=O)N(C)CC1=O [Compound 405] (cyclo([Ac5c][NMeV][d(β3hA)][NMeL]I[Sar][NPrGly][NMeCha][Sar][hPhe(3-Cl-4-CF3)]P)) | > 500 nM
CCC[C@@H]1NC(=O)[C@H](CC(C)C)N(C)C(=O)C[C@@H](C(=O)N2CCCCC2)N(C)C(=O)[C@H](C2CCCCC2)N(C)C(=O)C2(CCCC2)NC(=O)[C@@H]2CCCN2C(=O)[C@H](CCc2ccc(C(F)(F)F)c(Cl)c2)NC(=O)CN(C)C(=O)[C@H](CC2CCCCC2)N(C)C(=O)CN(C)C(=O)CN(C)C1=O [Compound 495] ([NMeL][Nva][Sar][Sar][NMeCha][Sar][hPhe(3-Cl-4-CF3)]P[Ac5c][NMeChg][NMeD]-Piperidide; lactam N-11) | > 500 nM
C#CC[C@@H]1NC(=O)[C@H](Cc2cccc(I)c2)NC(=O)CN(C)C(=O)[C@H](Cc2ccc(F)cc2)N(C)C(=O)CN(C)C(=O)CN(C)C(=O)[C@H]([C@@H](C)CC)NC(=O)[C@H](CC(C)C)N(C)C(=O)C[C@@H](C(=O)N2CCCCC2)N(C)C(=O)[C@H](CC(C)C)NC(=O)C(C)(C)N(C)C1=O [Compound 1327] ([NMeL]I[Sar][Sar][NMePhe(4-F)][Sar][Phe(3-I)][Pra][NMeAib]L[NMeD]-Piperidide; lactam N-11) | > 500 nM
CC[C@H](C)[C@@H]1NC(=O)[C@H](CC(C)C)N(C)C(=O)C[C@@H](C(=O)N2CCCCC2)N(C)C(=O)[C@H](CC(C)C)NC(=O)C(C)(C)N(C)C(=O)[C@H](Cc2ccc(OC)cc2)NC(=O)[C@H](Cc2cccc(I)c2)NC(=O)CN(C)C(=O)[C@H](Cc2ccc(C)cc2)N(C)C(=O)CN(C)C(=O)CN(C)C1=O [Compound 247] ([NMeL]I[Sar][Sar][NMePhe(4-Me)][Sar][Phe(3-I)]Y(Me)[NMeAib]L[NMeD]-Piperidide; lactam N-11) | > 500 nM
CCCC[C@@H]1NC(=O)[C@H](Cc2cccc(I)c2)NC(=O)CN(C)C(=O)[C@H](Cc2ccc(Cl)cc2)N(C)C(=O)CN(C)C(=O)CN(C)C(=O)[C@H]([C@@H](C)CC)NC(=O)[C@H](CC(C)C)N(C)C(=O)C[C@@H](C(=O)N2CCCCC2)N(C)C(=O)[C@H](CC(C)C)NC(=O)[C@H](Cc2ccccc2C)N(C)C1=O [Compound 696] ([NMeL]I[Sar][Sar][NMePhe(4-Cl)][Sar][Phe(3-I)][Nle][NMePhe(2-Me)]L[NMeD]-Piperidide; lactam N-11) | > 500 nM
CC[C@H](C)[C@@H]1NC(=O)[C@H](CC(C)C)N(C)C(=O)C[C@@H](C(=O)N(C)C)N(C)C(=O)[C@H](C2CCCC2)N(C)C(=O)[C@H](C)NC(=O)[C@H](Cc2cscn2)N(C)C(=O)[C@H](CCc2ccc(C(F)(F)F)c(Cl)c2)NC(=O)CN(C)C(=O)[C@H](CC2CCCCC2)N(C)C(=O)[C@@H]2CCN2C(=O)[C@H](C)N(C)C1=O [Compound 805] ([NMeL]I[NMeA][Aze][NMeCha][Sar][hPhe(3-Cl-4-CF3)][NMeAla(4-thiazolyl)]A[NMeGly(cPent)][NMeD]-NMe2; lactam N-11) | > 500 nM
CC[C@H](C)[C@@H]1NC(=O)[C@H](CC(F)(F)F)N(C)C(=O)C[C@@H](C(=O)N2CCCC2)N(C)C(=O)[C@H](C2CCCCC2)N(C)C(=O)C2(CCCC2)NC(=O)[C@@H]2CC(F)(F)CN2C(=O)[C@H](CCc2ccc(C(F)(F)F)c(Cl)c2)NC(=O)CN(C)C(=O)[C@H](Cc2ccc(C)cc2)N(C)C(=O)CN(C)C(=O)CN(C)C1=O [Compound 1245] ([NMeAbu(4,4,4-F3)]I[Sar][Sar][NMePhe(4-Me)][Sar][hPhe(3-Cl-4-CF3)][Pro(4,4-F2)][Ac5c][NMeChg][NMeD]-Pyrrolidide; lactam N-11) | ≤ 20 nM
CC[C@H](C)[C@@H]1NC(=O)[C@H](CC(C)C)N(C)C(=O)C[C@@H](C(=O)N2CCCCC2)N(C)C(=O)[C@H]([C@@H](C)OC)N(C)C(=O)C2(CCCC2)NC(=O)[C@@H]2CCCN2C(=O)[C@H](CCc2ccc(C(F)(F)F)c(Cl)c2)NC(=O)CN(C)C(=O)[C@H](CC2CCCCC2)N(C)C(=O)CN(C)C(=O)CN(C)C1=O [Compound 1101] ([NMeL]I[Sar][Sar][NMeCha][Sar][hPhe(3-Cl-4-CF3)]P[Ac5c][NMeT](Me)[NMeD]-Piperidide; lactam N-11) | > 500 nM
